In patent US20080262080A1, “Allergy Suppressive Agent” (KYUSHU UNIVERSITY, NATIONAL UNIVERSITY CORPORATION, priority 2004, published 2008):

Columns and labels:
[1] = test system: STAT6; experiment: Detection of phosphorylated STAT6 in IL-4-treated DND39 cells; assay type: cell-based, human; conditions: IL-4 (100 U/ml), chrysin at various concentrations, 30 min
Description: DND39 cells were treated with IL-4 (100 U/ml) and chrysin at various concentrations and then lysed. Each cell lysate was subjected to immunoprecipitation using anti-STAT6 antibody. The immunoprecipitate was subjected to 8% SDS-PAGE and transferred onto a nitrocellulose membrane and phosphorylated STAT6 was detected. The density of DND39 cells was adjusted to 2×10^6 cells/mL and IL-4 (100 U/mL) and chrysin at each concentration were added thereto. Then, the cells were lysed by treating for 30 min. The cell lysate was subjected to immunoprecipitation using anti-STAT6 antibody. The immunoprecipitate was subjected to 8% SDS-PAGE and blotted onto a nitrocellulose membrane. Then phosphorylated STAT6 was detected using anti-tyrosine phosphorylation antibody (PY20).

[2] = test system: germline IgE heavy chain transcription (εGT); experiment: Suppression of IL-4-induced germline IgE heavy chain transcript (εGT) expression in DND39 cells (RT-PCR, blot); assay type: cell-based, human; conditions: IL-4 (25 U/ml), chrysin at various concentrations, 48 hours
Description: IL-4 (25 U/ml) and chrysin at various concentrations were added to human mature B cell line DND39 cells and then the cells were incubated for 48 hours. mRNA was collected from the cells and cDNA was synthesized. An RT-PCR amplification product was electrophoresed on an agarose gel and transferred onto a membrane and εGT was thus detected. GAPDH (glyceraldehyde-3-phosphate dehydrogenase) was employed as a control. For each concentration or the control, the blot in the right side indicates the result in a 1/10 amount.
As described above, the inhibition of the εGT expression brings about fundamental suppression of IgE production. It is known that human mature B cell line DND39 expresses εGT in response to a stimulus by IL-4. Thus, DND39 cells were incubated in the presence of IL-4 and chrysin and the effect of chrysin on the εGT expression was examined.
Human mature B cell line DND39 was subcultured in a RPMI 1640 medium (Nissui), to which 5% of FBS (Intergen) had been added, at 37° C. and 5% CO2 vapor saturation and maintained therein. […]
The density of DND39 cells was adjusted to 2×10^5 cells/mL and incubated in the presence of IL-4 (25 U/mL) and chrysin at each concentration. […] Then, the RNA concentration was measured using a spectrophotometer Ultrospec 3000 (Pharmacia Biotech, Piscatway, N.J.). […]

In the case of `O=c1cc(-c2ccccc2)oc2cc(O)cc(O)c12` [Chrysin, 5,7-dihydroxyflavone], the “phosphorylation of STAT6” value [1] is reported as “suppressed” and the εGT expression [2] is reported as “concentration-dependently suppressed”.
